Values of other authors in PMC7918733, “Biological Profiling of Semisynthetic C19-Functionalized Ferruginol and Sugiol Analogues” (Antibiotics, 2021).

Experiments:
[1] = test system: L. donovani promastigotes; conditions: read-out: L. donovani IC50; cited from earlier work
[2] = test system: A549 (Lung); conditions: cited from earlier work
[3] = test system: HepG2; conditions: cytotoxicity; cited from earlier work
[4] = test system: P. falciparum 3D7 strain; conditions: chloroquine-sensitive strain; cited from earlier work
[5] = test system: Vero; conditions: cited from earlier work
[6] = test system: P. falciparum K1 strain; conditions: chloroquine-resistant strain; cited from earlier work
[7] = test system: HEK293; conditions: cytotoxicity; cited from earlier work
[8] = test system: BJ; conditions: cytotoxicity; cited from earlier work
[9] = test system: RAJI; conditions: cytotoxicity; cited from earlier work

Which IC50 [1] does the source give for CC(C)c1cc2c(cc1O)[C@@]1(C)CCCC(C)(C)[C@@H]1CC2 [Compound 1, ferruginol] here?
Its IC50 is 12.2 µM.

What about the GI50 [2] of the same molecule?
The GI50 was 30.7 ± 5.2 µM.

What about the EC50 [3] of the same molecule?
The EC50 was > 25 µM.

What about the EC50 [4] of the same molecule?
The EC50 was 2.47 µM.

What about the CC50 [5] of the same molecule?
Its CC50 is > 16.6 µM.

And the EC50 [6]?
Its EC50 is 1.33 µM.

What about the EC50 [7] of the same molecule?
The EC50 was > 25 µM.

And the EC50 [8]?
The EC50 was 19.6 µM.

And the EC50 [9]?
The EC50 was 11.5 µM.
